Values quoted from earlier work, collected in patent US10172913B2, “Orally disintegrating solid pharmaceutical dosage unit containing a partus control substance” (Oxytone Bioscience B.V., priority 2014, dated 2019).
Bridge positions count the residues as written; N and C are the ends. Square brackets hold non-standard residues; d marks the D form. Peptide text beside a SMILES is read from it. Orn = NCCC[C@H](N)C(=O)O; Mpa = O=C(O)CCS

Key:
[1] = in vivo
[2] = lyophilized

For `CC[C@H](C)[C@@H]1NC(=O)[C@H](Cc2ccc(O)cc2)NC(=O)[C@@H](N)CSSC[C@@H](C(=O)N2CCC[C@H]2C(=O)N[C@@H](CC(C)C)C(=O)NCC(N)=O)NC(=O)[C@H](CC(N)=O)NC(=O)[C@H](CCC(N)=O)NC1=O` [Oxytocin, cysteine-tyrosine-isoleucine-glutamine-asparagine-cysteine-proline-leucine-glycine-amide], which “half-life in the blood” value [1] is on record?
The value was “about three”.

For `CCOc1ccc(C[C@H]2NC(=O)CCSSC[C@@H](C(=O)N3CCC[C@H]3C(=O)N[C@@H](CCCN)C(=O)NCC(N)=O)NC(=O)[C@H](CC(N)=O)NC(=O)[C@H]([C@@H](C)O)NC(=O)[C@H]([C@@H](C)CC)NC2=O)cc1` [atosiban] ([Mpa][dY](Et)ITNCP[Orn]G-NH2; disulfide 1-6), which “time stable at room temperature” value [2] is on record?
Its value is 3 weeks.
